Measured values from patent US10206399B2, “Herbicidal composition comprising uracil compound as active ingredient” (Dongbu Farm Hannong Co., Ltd., priority 2012, dated 2019).
Where two headings read alike, the source gives them in different places.

Legend:
Monochoria vaginalis = experiment: Paddy field farming herbicidal composition test, plant mortality; type: in vivo
Description: (§1) X is % damage by uracil compound (a) of formula 1 at the rate of application of p kg/ha; Y is % damage by conventional herbicidal compound (b) at the rate of application of q kg/ha; and E is the expected damage caused by compounds (a) and (b) at a rate of application of p and q kg/ha.
(§2) The expected activity for a given combination of two herbicides can be calculated using equation 1 above.

rice plant = experiment: Paddy field farming herbicidal composition test, plant mortality (crop)
Description: as §1, §2

Ludwigia prostrate = experiment: Paddy field farming herbicidal composition test, plant mortality; type: in vivo
Description: as §1, §2

Capsella bursapastoris = experiment: Dry field farming herbicidal composition test, plant mortality; type: in vivo; conditions: in % (unit assumed)
Description: as §1, §2

wheat = experiment: Dry field farming herbicidal composition test, plant mortality (crop)
Description: as §1, §2

Porippa islandica = experiment: Dry field farming herbicidal composition test, plant mortality; type: in vivo
Description: as §1, §2

Lamium amplexicaule = experiment: as above; type: in vivo; conditions: in % (unit assumed)
Description: as §1, §2

Alopecurus aequalis = experiment: as above; type: in vivo; conditions: in % (unit assumed)
Description: as §1, §2

Abutilon theophrasti = experiment: Dry field farming herbicidal composition test, plant mortality; type: in vivo
Description: as §1, §2

Aeschynomene indica = experiment: as above; type: in vivo
Description: as §1, §2

Digitaria sanguinalis = experiment: as above; type: in vivo
Description: as §1, §2

Echinochloa crus = experiment: as above; type: in vivo
Description: as §1, §2

[1] = Pontederia vaginalis, read-out: Monochoria vaginalis mortality (measured value)
[2] = Abutilon theophrasti, read-out: Abutilon theophrasti mortality, measured value
[3] = Aeschynomene indica, read-out: Aeschynomene indica mortality, measured value
[4] = Digitaria sanguinalis, read-out: Digitaria sanguinalis mortality, measured value
[5] = Echinochloa, read-out: Echinochloa crus mortality, measured value

Structure (SMILES): COc1cc(OC)nc(NC(=O)NS(=O)(=O)Cc2ccccc2C(=O)O)n1 [Bensulfuron]
- Monochoria vaginalis mortality (measured value) (Monochoria vaginalis; 10 g/ha): 15
- Monochoria vaginalis mortality (measured value) (Monochoria vaginalis; 20 g/ha): 35
- Monochoria vaginalis mortality (measured value) (Monochoria vaginalis; 40 g/ha): 51
- Rice plant mortality (measured value) (rice plant; 10 g/ha): 0
- Rice plant mortality (measured value) (rice plant; 20 g/ha): 0
- Rice plant mortality (measured value) (rice plant; 40 g/ha): 1
- Ludwigia prostrate mortality (measured value) (Ludwigia prostrate; 10 g/ha): 20%
- Ludwigia prostrate mortality (measured value) (Ludwigia prostrate; 20 g/ha): 40%
- Ludwigia prostrate mortality (measured value) (Ludwigia prostrate; 40 g/ha): 55%

Structure (SMILES): CC(C)c1ccc(NC(=O)N(C)C)cc1 [Isoproturon]
- Capsella bursapastoris mortality, measured value (Capsella bursapastoris; 150 g/ha): 11
- Capsella bursapastoris mortality, measured value (Capsella bursapastoris; 300 g/ha): 29
- Capsella bursapastoris mortality, measured value (Capsella bursapastoris; 600 g/ha): 63
- Wheat mortality, measured value (wheat; 150 g/ha): 0
- Wheat mortality, measured value (wheat; 300 g/ha): 0
- Wheat mortality, measured value (wheat; 600 g/ha): 1
- Porippa islandica mortality, measured value (Porippa islandica; 150 g/ha): 10
- Porippa islandica mortality, measured value (Porippa islandica; 300 g/ha): 26
- Porippa islandica mortality, measured value (Porippa islandica; 600 g/ha): 53
- Lamium amplexicaule mortality, measured value (Lamium amplexicaule; 150 g/ha): 12
- Lamium amplexicaule mortality, measured value (Lamium amplexicaule; 300 g/ha): 25
- Lamium amplexicaule mortality, measured value (Lamium amplexicaule; 600 g/ha): 49
- Alopecurus aequalis mortality, measured value (Alopecurus aequalis; 150 g/ha): 15
- Alopecurus aequalis mortality, measured value (Alopecurus aequalis; 300 g/ha): 32
- Alopecurus aequalis mortality, measured value (Alopecurus aequalis; 600 g/ha): 64

Structure (SMILES): COc1cc(OC)nc(NC(=O)NS(=O)(=O)c2c(C(=O)O)cnn2C)n1 [Pyrazosulfuron]
- Monochoria vaginalis mortality (measured value) (Monochoria vaginalis; 2 g/ha): 20
- Monochoria vaginalis mortality (measured value) (Monochoria vaginalis; 4 g/ha): 40
- Monochoria vaginalis mortality (measured value) (Monochoria vaginalis; 5 g/ha): 40
- Monochoria vaginalis mortality (measured value) (Monochoria vaginalis; 8 g/ha): 63
- Monochoria vaginalis mortality (measured value) (Monochoria vaginalis; 10 g/ha): 67
- Rice plant mortality (measured value) (rice plant; 2 g/ha): 0
- Rice plant mortality (measured value) (rice plant; 4 g/ha): 0
- Rice plant mortality (measured value) (rice plant; 5 g/ha): 0
- Rice plant mortality (measured value) (rice plant; 8 g/ha): 1
- Rice plant mortality (measured value) (rice plant; 10 g/ha): 1
- Ludwigia prostrate mortality (measured value) (Ludwigia prostrate; 2 g/ha): 15%
- Ludwigia prostrate mortality (measured value) (Ludwigia prostrate; 4 g/ha): 35%
- Ludwigia prostrate mortality (measured value) (Ludwigia prostrate; 5 g/ha): 45%
- Ludwigia prostrate mortality (measured value) (Ludwigia prostrate; 8 g/ha): 65%
- Ludwigia prostrate mortality (measured value) (Ludwigia prostrate; 10 g/ha): 62%

Structure (SMILES): Cc1nn(-c2cc(CC(Cl)C(=O)O)c(Cl)cc2F)c(=O)n1C(F)F (stereo not shown) [Carfentrazone]
- pest or weed control at 5 g/ha (Monochoria vaginalis; [1]): 20%
- pest or weed control at 10 g/ha (Monochoria vaginalis; [1]): 45%
- Rice plant mortality (measured value) (rice plant; 5 g/ha): 0
- Rice plant mortality (measured value) (rice plant; 10 g/ha): 0
- Corn mortality (measured value) (corn; 1 g/ha): 0
- Corn mortality (measured value) (corn; 2 g/ha): 0
- Corn mortality (measured value) (corn; 4 g/ha): 0
- Corn mortality, measured value (corn; 5 g/ha): 0
- Corn mortality, measured value (corn; 10 g/ha): 1
- Capsella bursapastoris mortality, measured value (Capsella bursapastoris; 1 g/ha): 0
- Capsella bursapastoris mortality, measured value (Capsella bursapastoris; 2 g/ha): 15
- Capsella bursapastoris mortality, measured value (Capsella bursapastoris; 4 g/ha): 35
- Wheat mortality, measured value (wheat; 1 g/ha): 0
- Wheat mortality, measured value (wheat; 2 g/ha): 0
- Wheat mortality, measured value (wheat; 4 g/ha): 0
- Porippa islandica mortality, measured value (Porippa islandica; 1 g/ha): 5
- Porippa islandica mortality, measured value (Porippa islandica; 2 g/ha): 15
- Porippa islandica mortality, measured value (Porippa islandica; 4 g/ha): 40
- Lamium amplexicaule mortality, measured value (Lamium amplexicaule; 1 g/ha): 5
- Lamium amplexicaule mortality, measured value (Lamium amplexicaule; 2 g/ha): 20
- Lamium amplexicaule mortality, measured value (Lamium amplexicaule; 4 g/ha): 40
- Ludwigia prostrate mortality (measured value) (Ludwigia prostrate; 5 g/ha): 35%
- Ludwigia prostrate mortality (measured value) (Ludwigia prostrate; 10 g/ha): 50%
- Abutilon theophrasti mortality, measured value (Abutilon theophrasti; 1 g/ha): 10
- Abutilon theophrasti mortality, measured value (Abutilon theophrasti; 2 g/ha): 25
- Abutilon theophrasti mortality, measured value (Abutilon theophrasti; 4 g/ha): 45
- pest or weed control at 5 g/ha (Abutilon theophrasti; [2]): 50%
- pest or weed control at 10 g/ha (Abutilon theophrasti; [2]): 75%
- Aeschynomene indica mortality, measured value (Aeschynomene indica; 1 g/ha): 5
- Aeschynomene indica mortality, measured value (Aeschynomene indica; 2 g/ha): 20
- Aeschynomene indica mortality, measured value (Aeschynomene indica; 4 g/ha): 40
- pest or weed control at 5 g/ha (Aeschynomene indica; [3]): 45%
- pest or weed control at 10 g/ha (Aeschynomene indica; [3]): 70%
- Digitaria sanguinalis mortality, measured value (Digitaria sanguinalis; 1 g/ha): 0
- Digitaria sanguinalis mortality, measured value (Digitaria sanguinalis; 2 g/ha): 0
- Digitaria sanguinalis mortality, measured value (Digitaria sanguinalis; 4 g/ha): 0
- pest or weed control at 5 g/ha (Digitaria sanguinalis; [4]): 0%
- pest or weed control at 10 g/ha (Digitaria sanguinalis; [4]): 5%
- Alopecurus aequalis mortality, measured value (Alopecurus aequalis; 1 g/ha): 0
- Alopecurus aequalis mortality, measured value (Alopecurus aequalis; 2 g/ha): 0
- Alopecurus aequalis mortality, measured value (Alopecurus aequalis; 4 g/ha): 0
- Echinochloa crus mortality, measured value (Echinochloa crus; 1 g/ha): 0
- Echinochloa crus mortality, measured value (Echinochloa crus; 2 g/ha): 0
- Echinochloa crus mortality, measured value (Echinochloa crus; 4 g/ha): 0
- pest or weed control at 5 g/ha (Echinochloa crus; [5]): 0%
- pest or weed control at 10 g/ha (Echinochloa crus; [5]): 5%

Structure (SMILES): COc1nc(C)nc(=NC(=O)NS(=O)(=O)c2ccccc2C(=O)O)[nH]1 [Metsulfuron]
- Capsella bursapastoris mortality, measured value (Capsella bursapastoris; 1 g/ha): 7
- Capsella bursapastoris mortality, measured value (Capsella bursapastoris; 2 g/ha): 24
- Capsella bursapastoris mortality, measured value (Capsella bursapastoris; 4 g/ha): 48
- Wheat mortality, measured value (wheat; 1 g/ha): 0
- Wheat mortality, measured value (wheat; 2 g/ha): 0
- Wheat mortality, measured value (wheat; 4 g/ha): 0
- Porippa islandica mortality, measured value (Porippa islandica; 1 g/ha): 5
- Porippa islandica mortality, measured value (Porippa islandica; 2 g/ha): 20
- Porippa islandica mortality, measured value (Porippa islandica; 4 g/ha): 45
- Lamium amplexicaule mortality, measured value (Lamium amplexicaule; 1 g/ha): 11
- Lamium amplexicaule mortality, measured value (Lamium amplexicaule; 2 g/ha): 29
- Lamium amplexicaule mortality, measured value (Lamium amplexicaule; 4 g/ha): 57
- Alopecurus aequalis mortality, measured value (Alopecurus aequalis; 1 g/ha): 0
- Alopecurus aequalis mortality, measured value (Alopecurus aequalis; 2 g/ha): 0
- Alopecurus aequalis mortality, measured value (Alopecurus aequalis; 4 g/ha): 0

Structure (SMILES): O=C(Nc1ccc(F)cc1F)c1cccnc1Oc1cccc(C(F)(F)F)c1 [Diflufenican]
- Capsella bursapastoris mortality, measured value (Capsella bursapastoris; 37.5 g/ha): 6
- Capsella bursapastoris mortality, measured value (Capsella bursapastoris; 75 g/ha): 21
- Capsella bursapastoris mortality, measured value (Capsella bursapastoris; 150 g/ha): 45
- Wheat mortality, measured value (wheat; 37.5 g/ha): 0
- Wheat mortality, measured value (wheat; 75 g/ha): 0
- Wheat mortality, measured value (wheat; 150 g/ha): 1
- Porippa islandica mortality, measured value (Porippa islandica; 37.5 g/ha): 5
- Porippa islandica mortality, measured value (Porippa islandica; 75 g/ha): 20
- Porippa islandica mortality, measured value (Porippa islandica; 150 g/ha): 40
- Lamium amplexicaule mortality, measured value (Lamium amplexicaule; 37.5 g/ha): 10
- Lamium amplexicaule mortality, measured value (Lamium amplexicaule; 75 g/ha): 24
- Lamium amplexicaule mortality, measured value (Lamium amplexicaule; 150 g/ha): 47
- Alopecurus aequalis mortality, measured value (Alopecurus aequalis; 37.5 g/ha): 0
- Alopecurus aequalis mortality, measured value (Alopecurus aequalis; 75 g/ha): 0
- Alopecurus aequalis mortality, measured value (Alopecurus aequalis; 150 g/ha): 0

Structure (SMILES): COC(=O)c1ccc(CNS(C)(=O)=O)cc1S(=O)(=O)NC(=O)Nc1nc(OC)cc(OC)n1 [Mesosulfuron]
- Capsella bursapastoris mortality, measured value (Capsella bursapastoris; 2 g/ha): 10
- Capsella bursapastoris mortality, measured value (Capsella bursapastoris; 4 g/ha): 30
- Capsella bursapastoris mortality, measured value (Capsella bursapastoris; 8 g/ha): 59
- Wheat mortality, measured value (wheat; 2 g/ha): 0
- Wheat mortality, measured value (wheat; 4 g/ha): 0
- Wheat mortality, measured value (wheat; 8 g/ha): 1
- Porippa islandica mortality, measured value (Porippa islandica; 2 g/ha): 12
- Porippa islandica mortality, measured value (Porippa islandica; 4 g/ha): 27
- Porippa islandica mortality, measured value (Porippa islandica; 8 g/ha): 61
- Lamium amplexicaule mortality, measured value (Lamium amplexicaule; 2 g/ha): 13
- Lamium amplexicaule mortality, measured value (Lamium amplexicaule; 4 g/ha): 26
- Lamium amplexicaule mortality, measured value (Lamium amplexicaule; 8 g/ha): 55
- Alopecurus aequalis mortality, measured value (Alopecurus aequalis; 2 g/ha): 15
- Alopecurus aequalis mortality, measured value (Alopecurus aequalis; 4 g/ha): 32
- Alopecurus aequalis mortality, measured value (Alopecurus aequalis; 8 g/ha): 64
